Results on one compound are retold here after US8476317B2, “N-alkylcarbonyl-amino acid ester compounds and their use for cough and pharyngitis” (priority 2011, dated 2013).

The test system of data set [1] is dorsal surface of the tongue. To be noted: average of 6 subjects, filter paper on tongue; Watson et al.; cited from earlier work.
Another data set concerns philtrum skin. Nature of the data set: Cooling on facial (philtrum) skin, ointment. In kind it is in vivo, human. An excerpt: A reliable place for topical application is the skin above the upper lip (above the vermilion border of the lips), on the philtrum, lateral to the philtrum until the nasolabial folds, and on the lower nostrils (subnasale). This part of the face is known to be densely innervated with cold receptors, second only to the surfaces of the eyeball and anogenitalia. At this locus, tingling, cool and cold sensations in the skin may be experienced and rated for time of onset and intensity.
The intervals for recording sensations are 5 to 10 minutes, until two successive zeroes are obtained. The results (shown in FIG. 1) are averaged values of 4 to 6 separate trials in the same individual. The data are plotted using SigmaPlot® (Systat Software, Point Richmond Calif.) and a smoothing function with a negative exponential was used for analysis and statistical fit of the results. Confirmatory trials of cooling action of the long-acting NACE compounds were obtained in 2 to 4 individuals but not quantified for some because of the large number of chemicals that were evaluated.
The onset of drug action is taken as the time to reach 2 units of coolness intensity, and offset of drug action is the time when coolness intensity drops below 2, after previously surpassing 2 units. The duration of cooling action is defined as the offset time minus the onset time. […] The quality of the sensation is noted, for example, as pure refreshing coolness, or if the sensation is accompanied by irritation (stinging or burning). The quality of the sensation is not rated for intensity.
For bioassay on the skin, approximately 30 mg was stirred and dissolved in 3 g of warm liquid Aquaphor® ointment to a yield a 40 mM (˜1% wt/vol) ointment. The exact amount was adjusted so that the molar equivalent was about 35 to 40 mM. After cooling, 40 to 70 mg of the solid ointment was placed on the tip of a plastic stick and applied to the skin above the upper lip, on the philtrum, and lateral to the philtrum, up to the nasolabial folds, of test subjects and the onset and duration of cooling sensations noted.
The intervals for recording sensations were 5 to 10 minutes, until two successive zeroes were obtained. The results (shown in FIG. 1) are averaged values of 4 to 6 separate trials in the same individual. The data are plotted using SigmaPlot® (Systat Software, Point Richmond, Calif., USA) and a smoothing function with a negative exponential was used for analysis and statistical fit of the results.
The onset of drug action was taken as the time to reach 2 units of coolness intensity, and offset of drug action was the time when coolness intensity drops below 2, after previously surpassing 2 units. The duration of cooling action was defined as the offset time minus the onset time. […] The quality of the sensation was also noted: such as pure refreshing coolness, or if the sensation was accompanied by irritation (stinging or burning). The quality of the sensation was not rated for intensity.
In the results of FIG. 1, the test compounds were singly applied to the skin above the upper lips as a ˜1% wt/vol (10 mg/ml) ointment. Subsequently, for the results shown in Table 3, the test dose on the philtrum was reduced to a 0.5% wt/vol (5 mg/ml) ointment. The reason for choosing a lower dose was to increase the number of trials per individual and to have a reduced chance of substances accumulating in the skin.

In the next data set the test system is oral cavity / oropharynx. Nature of the data set: Cooling in oral cavity after application on dorsal surface of tongue. The format is in vivo, human. Here is the method:
The subject is instructed to close and hold the substance in the mouth for at least 10 seconds and not to swallow. The description of sensations is then recorded at 5 to 10 minute intervals.
The compounds of Formula 1 are white crystalline solids at room temperatures. These compounds were tested as the pure powder (>95% purity, by HPLC analysis), or mixed 1:1 with powdered or granulated sugar. The test substances were applied at 2 to 5 mg on the mid-point of the dorsal surface of the tongue using a metal spatula or a plastic applicator. After depositing the test substance on the tongue, the subject was instructed to keep the mouth closed and allow the fluids of the mouth to inter-mix with the test substance and to distribute it to the back of the mouth (oropharynx). The presence and duration of subjective sensations from the mouth was then recorded.

With `CC1CCC(C(C)C)C(O)C1` (single isomer, unassigned; (-)) [(−)-menthol, reference compound], in data set [1], the “Threshold, μg (cooling on tongue)” value was 0.25 µg. The “Acts for >1 hour at 40 mM” value in the data set with philtrum skin (40 mM ointment on skin) was “no”. In the data set with philtrum skin (Table 2 summary), the “"perfect" cooling experience” value was “no”, the “Cooling on skin of face” value is recorded as “yes” and the “Eye Irritancy” value was “yes”. The “duration of cooling action of ODT” value with oral cavity / oropharynx (ODT containing 5 to 10 mg) was “less than 10 minutes”. In the data set on oral cavity / oropharynx (Table 2 summary), the Cooling on tongue result was “yes”.
